The experiment has as its system frog. As to the kind of experiment: Potency with reference to carbamylcholine at the frog neuromuscular junction, expressed as reciprocal of equipotent molar ratio. The format is functional.

`C[N+]1(C)CCN(C(N)=O)CC1`: the Potency came out at 0.15. As for `CC(=O)C1=CC[N+](C)(C)CC1`, the figure is 50. With `C[N+]1(C)CCC(C(N)=O)CC1` the figure was 0.052; with `CC(=O)N1CC[N+](C)(C)CC1`, 2.6. With `C[N+]1(C)CC=C(C(N)=O)CC1` the figure was 0.77; with `CC(=O)C1CC[N+](C)(C)CC1`, 9.1.

(Values after ChEMBL document CHEMBL1124383, “Carbamyl analogues of potent nicotinic agonists: pharmacology and computer-assisted molecular modeling study” (J Med Chem, 1989).)
